Results taken from paper PMC6492180, “Cytome micronucleus assays with a metabolically competent human derived liver cell line (Huh6): A promising approach for routine testing of chemicals?” (Environmental and Molecular Mutagenesis, 2018).
Like-named read-outs stand apart in the source and are kept apart here. Marks after values point to notes of the source that are not given here.

Columns and labels:
Huh6 cells = system: Huh6 cells
Procedure: All experiments were performed in duplicate.
3.8–4.0 × 10^5 cells per well were seeded into 6‐well plates with 3 mL of RPMI (4% FBS) for 12 hr, then dilutions of stock solutions of the diagnostic mutagens were added for different time periods (4, 24, and 48 hr). In each experimental series solvent controls were included. Subsequently, the cells were washed twice with 3.0 mL medium. […] Finally, the cells were washed and trypsinised. Afterwards the cells were washed twice with 8.0 mL RPMI and collected on slides by cytocentrifugation (600 rpm, 5 min). The slides were air dried, fixed, and stained with DiffQuick according to the instructions of the manufacturer. For each experimental point, two cultures were tested per dose. From each culture ≥1,000 BN cells were evaluated under 400‐fold magnification (Nikon Photophot‐FXA, Tokyo, Japan). At least 2,000 binucleated cells were analyzed per dose for the determination of the different nuclear anomalies (MN, NBuds, and NBs).
The experiments were performed as described in the previous chapter. The cells were exposed only to one dose of the different mutagens and were cultivated after the seeding in 6‐well plates which contained 4% or 10% FBS in RPMI, respectively.
Data were evaluated by generalized linear model with Poisson counts. Chi‐square tests for overdispersion were applied. […] P values ≤0.05 were considered statistically significant.
^150-60 000 cells were seeded in 6 well plates with 3 ml RPMI (4% FBS), subsequently different solutions of the test compound (dissolved in medium) were added. After treatment for different time periods, the cells was washed and processed as described in the Material and Method section. […] From each culture 1000 binoculated cells were evaluated. BN-MN – number of micronucleated cells; MN - total number of micronuclei; CBPI – cytokinesis-block proliferation index
^1The experiments were conducted essentially as described in the footnote of Table S1A-I. *p≤0.05

HepaRG = details: HepaRG, cited from earlier work
HepG2 = details: cited from earlier work
Human lymphocytes = details: Human lymphocytes, + S9, cited from earlier work
[1] = ref IARC (2018); cited from earlier work
[2] = 10% FBS, 24 hr treatment, 50 µM
[3] = 10% FBS, 24 hr treatment, 100 µM

COc1cc([C@@H]2c3cc4c(cc3[C@@H](O[C@@H]3O[C@@H]5CO[C@@H](C)O[C@H]5[C@H](O)[C@H]3O)[C@H]3COC(=O)[C@H]23)OCO4)cc(OC)c1O [Etoposide]
CBPI (Huh6 cells; 4% FBS, 4hrs, 0.01 µg/ml): 1.8 ± 0.1 | CBPI (Huh6 cells; 4% FBS, 4hrs, 0.05 µg/ml): 1.8 ± 0.1 | CBPI (Huh6 cells; 4% FBS, 4hrs, 0.1 µg/ml): 1.8 ± 0.1 | CBPI (Huh6 cells; 4% FBS, 24hrs, 0.01 µg/ml): 1.9 ± 0.0 | CBPI (Huh6 cells; 4% FBS, 24hrs, 0.1 µg/ml): 1.8 ± 0.0 | CBPI (Huh6 cells; 4% FBS, 48hrs, 0.01 µg/ml): 1.7 ± 0.0 | CBPI (Huh6 cells; 4% FBS, 48hrs, 0.1 µg/ml): 1.1 ± 0.0 | CBPI (Huh6 cells; 10% FBS, 24 hr treatment, 0.1 µg/ml): 1.9 ± 0.0

Cn1c(N)nc2c3cccnc3ccc21 [IQ, 2‐Amino‐3‐methyl‐3H‐imidazo[4,5‐f]quinoline]
MN effects after 24 hr (or longer) compared with 4 hr treatment (in words) (Huh6 cells; 4% FBS): more pronounced effects | BN-MN (number of micronucleated cells) (Huh6 cells; 4% FBS, 4hrs, 25 µM): 16.0 ± 2.8 ‰ | Bridges (Huh6 cells; 4% FBS, 4hrs, 25 µM): 0.5 ± 0.7 ‰ | Buds (Huh6 cells; 4% FBS, 4hrs, 25 µM): 17.5 ± 2.1 ‰ | CBPI (Huh6 cells; 4% FBS, 4hrs, 25 µM): 1.9 ± 0.1 | MN (total number of micronuclei) (Huh6 cells; 4% FBS, 4hrs, 25 µM): 16.0 ± 2.8 ‰ | BN-MN (number of micronucleated cells) (Huh6 cells; 4% FBS, 4hrs, 50 µM): 18.0 ± 4.2 ‰ | Bridges (Huh6 cells; 4% FBS, 4hrs, 50 µM): 0.5 ± 0.7 ‰ | Buds (Huh6 cells; 4% FBS, 4hrs, 50 µM): 16.5 ± 0.7 ‰ | CBPI (Huh6 cells; 4% FBS, 4hrs, 50 µM): 1.8 ± 0.1 | MN (total number of micronuclei) (Huh6 cells; 4% FBS, 4hrs, 50 µM): 19.0 ± 4.2 ‰ | BN-MN (number of micronucleated cells) (Huh6 cells; 4% FBS, 4hrs, 100 µM): 23.5 ± 5.0* ‰ | Bridges (Huh6 cells; 4% FBS, 4hrs, 100 µM): 1.5 ± 0.7 ‰ | Buds (Huh6 cells; 4% FBS, 4hrs, 100 µM): 21.5 ± 2.1* ‰ | CBPI (Huh6 cells; 4% FBS, 4hrs, 100 µM): 1.9 ± 0.0 | MN (total number of micronuclei) (Huh6 cells; 4% FBS, 4hrs, 100 µM): 24.5 ± 5.0* ‰ | BN-MN (number of micronucleated cells) (Huh6 cells; 4% FBS, 24hrs, 25 µM): 18.5 ± 0.7 ‰ | Bridges (Huh6 cells; 4% FBS, 24hrs, 25 µM): 0.0 ± 0.0 ‰ | Buds (Huh6 cells; 4% FBS, 24hrs, 25 µM): 10.5 ± 2.1 ‰ | CBPI (Huh6 cells; 4% FBS, 24hrs, 25 µM): 1.9 ± 0.0 | MN (total number of micronuclei) (Huh6 cells; 4% FBS, 24hrs, 25 µM): 19.5 ± 0.7 ‰ | BN-MN (number of micronucleated cells) (Huh6 cells; 4% FBS, 24hrs, 50 µM): 26.0 ± 1.4* ‰ | Bridges (Huh6 cells; 4% FBS, 24hrs, 50 µM): 2.0 ± 0.0 ‰ | Buds (Huh6 cells; 4% FBS, 24hrs, 50 µM): 18.5 ± 2.1* ‰ | CBPI (Huh6 cells; 4% FBS, 24hrs, 50 µM): 1.7 ± 0.0 | MN (total number of micronuclei) (Huh6 cells; 4% FBS, 24hrs, 50 µM): 26.5 ± 0.7 ‰ | BN-MN (number of micronucleated cells) (Huh6 cells; 4% FBS, 24hrs, 100 µM): 39.0 ± 5.7* ‰ | Bridges (Huh6 cells; 4% FBS, 24hrs, 100 µM): 5.5 ± 0.7 ‰ | Buds (Huh6 cells; 4% FBS, 24hrs, 100 µM): 32.5 ± 5.0* ‰ | CBPI (Huh6 cells; 4% FBS, 24hrs, 100 µM): 2.0 ± 0.1 | MN (total number of micronuclei) (Huh6 cells; 4% FBS, 24hrs, 100 µM): 44.0 ± 1.4* ‰ | BN-MN (number of micronucleated cells) (Huh6 cells; 4% FBS, 48hrs, 25 µM): 20.5 ± 2.1 ‰ | Bridges (Huh6 cells; 4% FBS, 48hrs, 25 µM): 0.0 ± 0.0 ‰ | Buds (Huh6 cells; 4% FBS, 48hrs, 25 µM): 22.0 ± 4.2 ‰ | CBPI (Huh6 cells; 4% FBS, 48hrs, 25 µM): 1.9 ± 0.1 | MN (total number of micronuclei) (Huh6 cells; 4% FBS, 48hrs, 25 µM): 21.5 ± 2.1 ‰ | BN-MN (number of micronucleated cells) (Huh6 cells; 4% FBS, 48hrs, 50 µM): 32.0 ± 5.7* ‰ | Bridges (Huh6 cells; 4% FBS, 48hrs, 50 µM): 1.0 ± 0.0 ‰ | Buds (Huh6 cells; 4% FBS, 48hrs, 50 µM): 29.5 ± 2.1* ‰ | CBPI (Huh6 cells; 4% FBS, 48hrs, 50 µM): 1.8 ± 0.1 | MN (total number of micronuclei) (Huh6 cells; 4% FBS, 48hrs, 50 µM): 32.5 ± 6.4* ‰ | BN-MN (number of micronucleated cells) (Huh6 cells; 4% FBS, 48hrs, 100 µM): 40.0 ± 2.8* ‰ | Bridges (Huh6 cells; 4% FBS, 48hrs, 100 µM): 3.0 ± 1.4 ‰ | Buds (Huh6 cells; 4% FBS, 48hrs, 100 µM): 35.5 ± 3.5* ‰ | CBPI (Huh6 cells; 4% FBS, 48hrs, 100 µM): 1.7 ± 0.1 | MN (total number of micronuclei) (Huh6 cells; 4% FBS, 48hrs, 100 µM): 47.5 ± 3.5* ‰ | BN-MN (number of micronucleated cells) (Huh6 cells; [2]): 47.5 ± 3.5* | Bridges (Huh6 cells; [2]): 0 ± 0.0 | Buds (Huh6 cells; [2]): 42 ± 2.8 | CBPI (Huh6 cells; [2]): 1.9 ± 0.0 | MN (total number of micronuclei) (Huh6 cells; [2]): 51.0 ± 1.4* | BN-MN (number of micronucleated cells) (Huh6 cells; [3]): 63.5 ± 6.4* | Bridges (Huh6 cells; [3]): 0.5 ± 0.7 | Buds (Huh6 cells; [3]): 49 ± 1.4 | CBPI (Huh6 cells; [3]): 1.8 ± 0.1 | MN (total number of micronuclei) (Huh6 cells; [3]): 68.5 ± 5.0* | MN frequencies with 10% serum compared with 4% serum (in words) (Huh6 cells; 24 hr treatment): stronger effects | Lowest effective concentration (LOEC) in micronucleus experiments (Huh6 cells; Huh6): 50.0 µM | Lowest effective concentration (LOEC) in micronucleus experiments (HepaRG; ref Le Hegarat et al., 2010): Negative | NOEC (highest no observable effect concentration tested) (HepaRG; ref Le Hegarat et al., 2010): 500 µM | Lowest effective concentration (LOEC) in micronucleus experiments (HepG2; HepG2, ref Knasmuller et al., 1999): 300.0 (Knasmuller et al., 1999) μM | Lowest effective concentration (LOEC) in micronucleus experiments (Human lymphocytes; ref Fowler et al., 2014): 2200.0 µM | Lowest effective concentration (LOEC) in micronucleus experiments (Human lymphocytes; ref Katic et al., 2010): 250.0 µM | IARC classification [1]: Formation of guanine adducts, formation of DNA‐reactive metabolites which cause DNA‐adducts; activation: CYP1A2 and NAT; detoxification: GSTs and SULTs; IARC: Group 2A

COC(=O)Nc1nc2cc(C(=O)c3cccs3)ccc2[nH]1 [noctazole]
MN formation with the longer exposure time, treatment for 1 or 7 days (in words) (HepaRG; ref Josse et al., 2012): no such effects

O=P1(N(CCCl)CCCl)NCCCO1 (centres unmarked) [cyclophosphamide]
MN induction after 28 hr compared with 1 hr exposure (in words) (HepG2): stronger effects
